Values after ≈ are worked out from the molar mass of the structure shown.
What was measured:
[1] = test system: psoriasis induced mice (imiquimod); experiment: Keratosis reduction effect in the psoriasis induced mice (PASI); assay type: in vivo, Balb/c mouse; details: for keratosis mean point (PASI): day 7, 100 mg/kg oral once a day, IMQ applied, IMQ alone 3.8
Method: (§1) To investigate the delayed effect of cedrol, cedryl acetate, and alpha-cedrene on the development of psoriasis, total 5 groups of mice were prepared (8 mice/group). First, the hair of the entire back of the 8-week-old male Balb/c mouse whose immune system was weakened was removed by using a hair clipper (Kimlaube Hair pen 325,327, Rikei, Korea). In the middle of the shaved back of the mouse, 2 mg of imiquimod (3M Health Care Limited, England) was applied in the area of 2 cm×1.5 cm and also 1,125 mg of imiquimod was applied on the right ear of the mouse every day once a day to induce psoriasis.
(§2) The mice prepared above were divided into the distilled water treated group (IMQ), the cedrol treated group (C), the cedryl acetate treated group (CA), and the alpha-cedrene treated group (CE). At this time, the mice were orally treated with distilled water at the concentration of 200 μl/mouse and cedrol or its derivatives at the concentration of 200 μl/mouse (100 mg/kg). The day when distilled water or the compound administration started was recorded as day 0 and the administration was performed once a day for a week, during which photo-recording was performed every day (FIGS. 2A˜2D). In the meantime, instead of applying imiquimod, 40 mg of vaseline was applied on the back of the control group (CONT) and 22.5 mg of vaseline was applied on the right ear of the control group. And the control group was orally administered with distilled water (200 μl/mouse).
Then, the psoriasis area severity index (PASI) was calculated to confirm the reduction effect of the compounds on keratosis. Keratosis is a symptom of psoriasis. The application of IMQ can induce keratosis.

[2] = test system: psoriasis induced mice (imiquimod); experiment: Ear thickness reduction effect in the psoriasis induced mice (PASI); assay type: in vivo, Balb/c mouse; details: for mean ear thickness point (PASI): day 7, 100 mg/kg oral once a day, IMQ applied, IMQ alone 3.5
Method: as §1, §2
Then, the psoriasis area severity index (PASI) was calculated with the range of 1˜4 to confirm the reduction effect of the compounds on the ear thickness.

[3] = test system: psoriasis induced mice (imiquimod); experiment: Recovery effect on ear thickness of the psoriasis induced mice after termination of imiquimod (PASI); assay type: in vivo, Balb/c mouse
Method: (§3) Imiquimod was applied to the psoriasis induced mice which had developed psoriasis for a week in Example <2-1>. The application was stopped 8 days after the application began. The groups CON and IMQ were treated with distilled water, the group C was treated with cedrol, the group CA was treated with cedryl acetate, the group CE was treated with alpha-cedrene alone at the concentration of 100 mg/kg in 200 μl, every day via oral-administration. Day 8 was the day the imiquimod application was stopped, since then the compounds were administered for 1 week once a day, during which photo-recording was performed (FIGS. 13A˜13D).
The psoriasis area severity index (Psoriasis Area Severity Index, PASI) was given from the point 1 to point 4, based on which the recovery effect on the ear thickness was evaluated.

[4] = test system: psoriasis induced mice (imiquimod); experiment: Recovery effect on skin wrinkles of the psoriasis induced mice; assay type: in vivo, Balb/c mouse
Method: as §3
The psoriasis induced mice orally administered with cedrol, cedryl acetate, and alpha-cedrene of Example <3-1> were observed by the naked eye, and the number of mice showing the recovery of skin wrinkles was counted.

[5] = test system: psoriasis induced mice (imiquimod); experiment: Skin wrinkle reduction effect in the psoriasis induced mice; assay type: in vivo, Balb/c mouse; details: for number of mice showing skin wrinkles: IMQ applied, 8 mice/group
Method: as §1, §2
The psoriasis induced mice orally administered with cedrol, cedryl acetate, and alpha-cedrene of Example <2-1> were observed by the naked eye, and the number of mice showing skin wrinkles was counted. Skin wrinkle is a symptom of psoriasis, and when IMQ is applied, skin keratinization increases and accordingly skin wrinkles are formed as time goes by.

[6] = test system: psoriasis induced mice (imiquimod); experiment: Skin flair reduction effect in the psoriasis induced mice (PASI); assay type: in vivo, Balb/c mouse; details: for skin flair mean point (PASI): day 7, 100 mg/kg oral once a day, IMQ applied, IMQ alone 4.00
Method: as §1, §2
Then, the psoriasis area severity index (PASI) was calculated to confirm the reduction effect of the compounds on skin flair. Skin flair is a symptom of psoriasis. The application of IMQ can induce skin flair.

IL-17A expression = experiment: IL-17A inhibition assay in IL-17 luciferase-(LUCPorter) stable reporter cell line; details: for Inhibition of IL-17A expression (%) Experiment-1 / Inhibition of IL-17A expression (%) Experiment-2 / Inhibition of IL-17A expression (%) Experiment-3: 6 hours; for expression of IL-17A (luciferase units): control group 2,582 units; for suppression of the expression of IL-17A (in words): 10, 100, or 1,000 μg/ml; for inhibition at 10 µg/mL / inhibition at 100 µg/mL / inhibition at 1000 µg/mL / IC50: Homo sapiens; for inhibition at 10 µg/mL / inhibition at 100 µg/mL / inhibition at 1000 µg/mL: read-out: Average Inhibition (%); for IC50: read-out: IC50 to inhibit the IL-17A expression by 50%
[7] = test system: psoriasis induced mice (imiquimod); experiment: Recovery effect on hemorrhage spots of the psoriasis induced mice; assay type: in vivo, Balb/c mouse
Method: as §3
The psoriasis induced mice orally administered with cedrol, cedryl acetate, and alpha-cedrene of Example <3-1> were observed by the naked eye, and the number of mice showing the recovery of hemorrhage spots was counted.

[8] = test system: psoriasis induced mice (imiquimod); experiment: Recovery effect on keratosis of the psoriasis induced mice after termination of imiquimod (PASI); assay type: in vivo, Balb/c mouse
Method: as §3
Then, the psoriasis area severity index (Psoriasis Area Severity Index, PASI) was calculated, based on which the recovery effect on keratosis was evaluated.

[9] = test system: psoriasis induced mice (imiquimod); experiment: Skin pain reduction effect in the psoriasis induced mice (back pinch, mice counted); assay type: in vivo, Balb/c mouse; details: for number of mice showing skin pain: IMQ applied
Method: as §1, §2
When the back of the psoriasis induced mice orally administered with cedrol, cedryl acetate, and alpha-cedrene of Example <2-1> was pinched, those mice who sound painfully with strong rejection were counted. Skin pain is a symptom of psoriasis, and when IMQ is applied, skin pain becomes stronger as time goes by.

[10] = test system: psoriasis induced mice (imiquimod); experiment: Skin hemorrhage spot reduction effect in the psoriasis induced mice; assay type: in vivo, Balb/c mouse; details: for number of mice showing hemorrhage spots: IMQ applied, 8 mice/group
Method: as §1, §2
The psoriasis induced mice orally administered with cedrol, cedryl acetate, and alpha-cedrene of Example <2-1> were observed by the naked eye, and the number of mice showing hemorrhage spots was counted. Hemorrhage spot is a symptom of psoriasis, and when IMQ is applied, the number of skin hemorrhage spots increases as time goes by.

[11] = day 8 (imiquimod application stopped), 100 mg/kg oral
[12] = day 15, 100 mg/kg oral once a day after termination of imiquimod
[13] = day 8, 100 mg/kg oral, 8 mice/group
[14] = day 16, 100 mg/kg oral after termination of imiquimod
[15] = day 7, 100 mg/kg oral, IMQ alone 3
[16] = day 7, 100 mg/kg oral, IMQ alone 5

Compound	keratosis mean point (PASI) [1] [point]	mean ear thickness point (PASI) [2] [point]	PASI reflecting the ear thickness [3, 11] [point]	number of mice showing skin wrinkles [4, 13] [mice]	number of mice showing skin wrinkles [4, 14]	number of mice showing skin wrinkles [5, 15]	skin flair mean point (PASI) [6] [point]	expression of IL-17A, % by the control (IL-17A expression; 10 μg/ml) [% by the control]	Inhibition of IL-17A expression (%) Experiment-2 (IL-17A expression; 10 μg/ml) [%]	Inhibition of IL-17A expression (%) Experiment-3 (IL-17A expression; 10 μg/ml) [%]	expression of IL-17A (luciferase units) (IL-17A expression; 10 μg/ml)	expression of IL-17A, % by the control (IL-17A expression; 100 μg/ml) [% by the control]	Inhibition of IL-17A expression (%) Experiment-2 (IL-17A expression; 100 μg/ml) [%]	Inhibition of IL-17A expression (%) Experiment-3 (IL-17A expression; 100 μg/ml) [%]	expression of IL-17A (luciferase units) (IL-17A expression; 100 μg/ml)	expression of IL-17A, % by the control (IL-17A expression; 1,000 μg/ml) [% by the control]	Inhibition of IL-17A expression (%) Experiment-2 (IL-17A expression; 1000 μg/ml) [%]	Inhibition of IL-17A expression (%) Experiment-3 (IL-17A expression; 1000 μg/ml) [%]	expression of IL-17A (luciferase units) (IL-17A expression; 1,000 μg/ml)	suppression of the expression of IL-17A (in words) (IL-17A expression)	other results
CC1=CC[C@@]23C[C@@H]1C(C)(C)[C@@H]2CC[C@H]3C [alpha-cedrene, Alpha-cedrene]	2.66	2.6	4.0±0.0	3	no mouse	one	3.33	79	3	21	2,042±114 units	68	11	32	1,757±310 units	65	23	35	1,688±64 units	dose-dependently	keratosis reduction effect, comparison in words ([1]; 100 mg/kg oral, 7 days): strongest reduction effect; PASI reflecting the ear thickness [3, 12]: 0.7±0.6 point; skin wrinkle reduction effect, comparison in words ([5]; 100 mg/kg oral, 7 days): strongest reduction effect; number of mice showing skin wrinkles ([5]; day 6, 100 mg/kg oral): one; skin flair reduction effect, comparison in words ([6]; 100 mg/kg oral, 7 days): strongest reduction effect; Inhibition of IL-17A expression (%) Experiment-1 (IL-17A expression; 10 μg/ml): 6%; Inhibition of IL-17A expression (%) Experiment-1 (IL-17A expression; 100 μg/ml): 21%; Inhibition of IL-17A expression (%) Experiment-1 (IL-17A expression; 1000 μg/ml): 36%; inhibition at 10 µg/mL (IL-17A expression): 10%; inhibition at 100 µg/mL (IL-17A expression): 21.3%; inhibition at 1000 µg/mL (IL-17A expression): 31.3%; IC50 (IL-17A expression): 1510 µg/mL (≈ 7.37 mM); number of mice showing hemorrhage spots [7, 13]: 4 mice; number of mice showing hemorrhage spots [7, 14]: no mouse; PASI reflecting keratosis [8, 11]: 4.0±0.6 point; PASI reflecting keratosis [8, 12]: 0.3±0.6 point; skin pain reduction effect, comparison in words ([9]; 100 mg/kg oral, 7 days): strongest reduction effect; number of mice showing skin pain ([9]; during the 7 day observation period, 100 mg/kg oral): no mice; number of mice showing hemorrhage spots ([10]; day 5, 100 mg/kg oral): two; number of mice showing hemorrhage spots [10, 16]: one
CC(=O)O[C@]1(C)CC[C@@]23C[C@@H]1C(C)(C)[C@@H]2CC[C@H]3C [cedryl acetate, Cedryl acetate]	3.08	2.3	4.0±0.6	3	no mouse	one	3.16	77	15	23	1,994±304 units	64	27	36	1,648±138 units	10	74	90	257±6 units	dose-dependently	ear thickness reduction effect, comparison in words ([2]; 100 mg/kg oral, 7 days): strongest reduction effect; ear thickness recovery effect, comparison in words ([3]; 100 mg/kg oral after termination of imiquimod): strongest recovery effect; ear thickness recovered to normal (in words) ([3]; from day 15, 100 mg/kg oral after termination of imiquimod): all 8 mice were recovered to normal; number of mice showing skin wrinkles ([5]; day 5, 100 mg/kg oral): one; inhibition at 10 µg/mL (IL-17A expression): 19%; inhibition at 100 µg/mL (IL-17A expression): 31.5%; inhibition at 1000 µg/mL (IL-17A expression): 82%; IC50 (IL-17A expression): 608 µg/mL; IL-17A expression inhibition activity, comparison in words (IL-17A expression; order by IC50 of Table 3): strongest IL-17A expression inhibition activity; number of mice showing hemorrhage spots [7, 13]: 6 mice; number of mice showing hemorrhage spots [7, 14]: no mouse; PASI reflecting keratosis [8, 11]: 4.0±0.6 point; PASI reflecting keratosis ([8]; day 14, 100 mg/kg oral once a day after termination of imiquimod): 1.0±0.0 point; number of mice showing skin pain ([9]; day 6, 100 mg/kg oral, 8 mice/group): one; number of mice showing skin pain ([9]; day 7, 100 mg/kg oral, 8 mice/group, IMQ alone 5): no mice; skin hemorrhage spot reduction effect, comparison in words ([10]; 100 mg/kg oral, 7 days): strongest reduction effect; number of mice showing hemorrhage spots ([10]; day 5, 100 mg/kg oral): one; number of mice showing hemorrhage spots [10, 16]: one

From patent publication US10307383B2, “Cosmetic composition for preventing or ameliorating hypersensitive skin comprising cedrol or derivatives thereof, or pharmaceutically acceptable salts thereof” (University of Seoul Industry Cooperation Foundation, priority 2017, dated 2019)
